Source: PubChem BioAssay AID1259407 (Chemical Carcinogenesis Research Information System (CCRIS), 2018)
Entries after “also recorded” stand apart in the source; their conditions may differ. Calls of active or inactive are those of the source. The rule behind the calls is not given here.

Tested on: CCRIS mutagenicity, Ames/micronucleus/aberration tests
Test: CCRIS mutagenicity studies
[1] = Test System: AMES SALMONELLA TYPHIMURIUM, Strain/Indicator: TA98, Metabolic Activation: NONE, Method: STANDARD PLATE
[2] = Test System: AMES SALMONELLA TYPHIMURIUM, Strain/Indicator: TA98, Metabolic Activation: RAT, LIVER, S-9, AROCLOR 1254, Method: STANDARD PLATE
[3] = Test System: AMES SALMONELLA TYPHIMURIUM, Strain/Indicator: TA100, Metabolic Activation: NONE, Method: STANDARD PLATE
[4] = Test System: AMES SALMONELLA TYPHIMURIUM, Strain/Indicator: TA100, Metabolic Activation: RAT, LIVER, S-9, AROCLOR 1254, Method: STANDARD PLATE
[5] = Test System: AMES SALMONELLA TYPHIMURIUM, Strain/Indicator: TA100, Metabolic Activation: RAT, LIVER, S-9, PCB, Method: PREINCUBATION
[6] = Test System: AMES SALMONELLA TYPHIMURIUM, Strain/Indicator: TA100, Metabolic Activation: NONE, Method: PREINCUBATION

CC(C)(C)C1=CC(=O)C=CC1=O
mutagenic call (Test System: AMES SALMONELLA TYPHIMURIUM, Strain/Indicator: TA97, Metabolic Activation: NONE, Method: PREINCUBATION): inactive; negative
mutagenic call (Test System: AMES SALMONELLA TYPHIMURIUM, Strain/Indicator: TA97, Metabolic Activation: RAT, LIVER, S-9, PCB, Method: PREINCUBATION): inactive; negative
mutagenic call [1]: inactive; negative
mutagenic call (Test System: AMES SALMONELLA TYPHIMURIUM, Strain/Indicator: TA98, Metabolic Activation: RAT, LIVER, S-9, AROCLOR 1254, Method: PREINCUBATION): inactive; negative
mutagenic call [2]: inactive; negative
mutagenic call (Test System: AMES SALMONELLA TYPHIMURIUM, Strain/Indicator: TA98, Metabolic Activation: RAT, LIVER, S-9, PCB, Method: PREINCUBATION): inactive; negative
mutagenic call [3]: inactive; negative
mutagenic call (Test System: AMES SALMONELLA TYPHIMURIUM, Strain/Indicator: TA100, Metabolic Activation: RAT, LIVER, S-9, AROCLOR 1254, Method: PREINCUBATION): inactive; negative
mutagenic call [4]: inactive; negative
mutagenic call [5]: inactive; negative
mutagenic call (Test System: AMES SALMONELLA TYPHIMURIUM, Strain/Indicator: TA102, Metabolic Activation: NONE, Method: PREINCUBATION): inactive; negative
mutagenic call (Test System: AMES SALMONELLA TYPHIMURIUM, Strain/Indicator: TA102, Metabolic Activation: RAT, LIVER, S-9, PCB, Method: PREINCUBATION): inactive; negative
mutagenic call (Test System: CHINESE HAMSTER V-79, Strain/Indicator: V-79 (HGPRT)/6-THIOGUANINE, Metabolic Activation: NONE): inactive; negative
mutagenic call (Test System: CHINESE HAMSTER V-79, Strain/Indicator: V-79 (HGPRT)/6-THIOGUANINE, Metabolic Activation: RAT, LIVER, HEPATOCYTES): inactive; negative

CC(Br)c1ccccc1 (centres undefined)
mutagenic call [1]: inactive; negative
mutagenic call [3]: inactive; negative

CC1(C)O[C@H]1COc1c2ccoc2cc2oc(=O)ccc12
mutagenic call (Test System: AMES SALMONELLA TYPHIMURIUM, Strain/Indicator: TA92, Metabolic Activation: NONE, Method: SPOT TEST): inactive; negative
mutagenic call (Test System: AMES SALMONELLA TYPHIMURIUM, Strain/Indicator: TA92, Metabolic Activation: RAT, LIVER, S-9, AROCLOR 1254, Method: SPOT TEST): inactive; negative
mutagenic call (Test System: AMES SALMONELLA TYPHIMURIUM, Strain/Indicator: TA94, Metabolic Activation: NONE, Method: SPOT TEST): inactive; negative
mutagenic call (Test System: AMES SALMONELLA TYPHIMURIUM, Strain/Indicator: TA94, Metabolic Activation: RAT, LIVER, S-9, AROCLOR 1254, Method: SPOT TEST): inactive; negative
mutagenic call (Test System: AMES SALMONELLA TYPHIMURIUM, Strain/Indicator: TA97, Metabolic Activation: NONE, Method: SPOT TEST): inactive; negative
mutagenic call (Test System: AMES SALMONELLA TYPHIMURIUM, Strain/Indicator: TA97, Metabolic Activation: RAT, LIVER, S-9, AROCLOR 1254, Method: SPOT TEST): inactive; negative
mutagenic call (Test System: AMES SALMONELLA TYPHIMURIUM, Strain/Indicator: TA98, Metabolic Activation: NONE, Method: SPOT TEST): inactive; negative
mutagenic call (Test System: AMES SALMONELLA TYPHIMURIUM, Strain/Indicator: TA98, Metabolic Activation: RAT, LIVER, S-9, AROCLOR 1254, Method: SPOT TEST): inactive; negative
mutagenic call (Test System: AMES SALMONELLA TYPHIMURIUM, Strain/Indicator: TA100, Metabolic Activation: NONE, Method: SPOT TEST): inactive; negative
mutagenic call (Test System: AMES SALMONELLA TYPHIMURIUM, Strain/Indicator: TA100, Metabolic Activation: RAT, LIVER, S-9, AROCLOR 1254, Method: SPOT TEST): inactive; negative
mutagenic call (Test System: AMES SALMONELLA TYPHIMURIUM, Strain/Indicator: TA102, Metabolic Activation: NONE, Method: SPOT TEST): inactive; negative
mutagenic call (Test System: AMES SALMONELLA TYPHIMURIUM, Strain/Indicator: TA102, Metabolic Activation: RAT, LIVER, S-9, AROCLOR 1254, Method: SPOT TEST): inactive; negative

CCSC(C)CC1CC(=O)C(/C(CC)=N/OC/C=C/Cl)=C(O)C1 (centres undefined)
mutagenic call (End Point: In vitro chromosomal aberrations, Test System: Chinese hamster ovary (CHO) cells, Metabolic Activation: None): inactive; negative (purity 96.1%); also recorded: active; positive (structural changes; purity 81.4%)
mutagenic call (End Point: In vitro chromosomal aberrations, Test System: Chinese hamster ovary (CHO) cells, Metabolic Activation: Rat, liver, S-9, Aroclor 1254): inactive; negative (purity 96.1%)
mutagenic call (End Point: In vivo chromosomal aberrations, Test System: Bone marrow, Species: Rat, Strain/Sex: Sprague-Dawley/Female, Route: Gavage): inactive; negative (purity 83.3%)
mutagenic call (End Point: In vivo chromosomal aberrations, Test System: Bone marrow, Species: Rat, Strain/Sex: Sprague-Dawley/Male, Route: Gavage): inactive; negative (purity 83.3%)
mutagenic call (Test System: Ames Salmonella typhimurium, Strain/Indicator: TA98, Metabolic Activation: None, Method: Standard Plate): inactive; negative (purity 83.3%)
mutagenic call (Test System: Ames Salmonella typhimurium, Strain/Indicator: TA98, Metabolic Activation: Rat, liver, S-9, Aroclor, Method: Standard Plate): inactive; negative (purity 83.3%)
mutagenic call (Test System: Ames Salmonella typhimurium, Strain/Indicator: TA100, Metabolic Activation: None, Method: Standard Plate): inactive; negative (purity 83.3%)
mutagenic call (Test System: Ames Salmonella typhimurium, Strain/Indicator: TA100, Metabolic Activation: Rat, liver, S-9, Aroclor, Method: Standard Plate): inactive; negative (purity 83.3%)
mutagenic call (Test System: Ames Salmonella typhimurium, Strain/Indicator: TA1535, Metabolic Activation: None, Method: Standard Plate): inactive; negative (purity 83.3%)
mutagenic call (Test System: Ames Salmonella typhimurium, Strain/Indicator: TA1535, Metabolic Activation: Rat, liver, S-9, Aroclor, Method: Standard Plate): inactive; negative (purity 83.3%)
mutagenic call (Test System: Ames Salmonella typhimurium, Strain/Indicator: TA1537, Metabolic Activation: None, Method: Standard Plate): inactive; negative (purity 83.3%)
mutagenic call (Test System: Ames Salmonella typhimurium, Strain/Indicator: TA1537, Metabolic Activation: Rat, liver, S-9, Aroclor, Method: Standard Plate): inactive; negative (purity 83.3%)
mutagenic call (Test System: E. coli, Strain/Indicator: WP2uvrA, Metabolic Activation: None, Method: Standard Plate): inactive; negative (purity 83.3%)
mutagenic call (Test System: E. coli, Strain/Indicator: WP2uvrA, Metabolic Activation: Rat, liver, S-9, Aroclor, Method: Standard Plate): inactive; negative (purity 83.3%)
mutagenic call (Test System: UDS Mouse hepatocytes, Strain/Indicator: Thymidine incorporation, Metabolic Activation: Activation in whole animal, Method: Autoradiography): inactive; negative (purity 83.3%)

Nc1ccc(Oc2ccc(Oc3ccc(N)cc3)cc2)cc1
mutagenic call (Test System: AMES SALMONELLA TYPHIMURIUM, Strain/Indicator: TA98, Metabolic Activation: NONE, Method: PREINCUBATION): inactive; negative
mutagenic call [6]: inactive; negative
mutagenic call [5]: active; positive

O=C(c1ccccc1)N(O)c1ccc2c(c1)Cc1ccccc1-2
mutagenic call [2]: active; positive

C=C(C)C(=O)OCC(C)(C)COC(=O)C(=C)C
mutagenic call [1]: inactive; negative
mutagenic call [2]: inactive; negative
mutagenic call (Test System: AMES SALMONELLA TYPHIMURIUM, Strain/Indicator: TA98, Metabolic Activation: RAT, LIVER, S-9, SODIUM PHENOBARBITAL, Method: STANDARD PLATE): inactive; negative
mutagenic call [3]: inactive; negative
mutagenic call [4]: inactive; negative
mutagenic call (Test System: AMES SALMONELLA TYPHIMURIUM, Strain/Indicator: TA100, Metabolic Activation: RAT, LIVER, S-9, SODIUM PHENOBARBITAL, Method: STANDARD PLATE): inactive; negative
mutagenic call (Test System: AMES SALMONELLA TYPHIMURIUM, Strain/Indicator: TA1535, Metabolic Activation: NONE, Method: STANDARD PLATE): inactive; negative
mutagenic call (Test System: AMES SALMONELLA TYPHIMURIUM, Strain/Indicator: TA1535, Metabolic Activation: RAT, LIVER, S-9, AROCLOR 1254, Method: STANDARD PLATE): inactive; negative
mutagenic call (Test System: AMES SALMONELLA TYPHIMURIUM, Strain/Indicator: TA1535, Metabolic Activation: RAT, LIVER, S-9, SODIUM PHENOBARBITAL, Method: STANDARD PLATE): inactive; negative
mutagenic call (Test System: AMES SALMONELLA TYPHIMURIUM, Strain/Indicator: TA1537, Metabolic Activation: NONE, Method: STANDARD PLATE): inactive; negative
mutagenic call (Test System: AMES SALMONELLA TYPHIMURIUM, Strain/Indicator: TA1537, Metabolic Activation: RAT, LIVER, S-9, AROCLOR 1254, Method: STANDARD PLATE): inactive; negative
mutagenic call (Test System: AMES SALMONELLA TYPHIMURIUM, Strain/Indicator: TA1537, Metabolic Activation: RAT, LIVER, S-9, SODIUM PHENOBARBITAL, Method: STANDARD PLATE): inactive; negative
mutagenic call (Test System: AMES SALMONELLA TYPHIMURIUM, Strain/Indicator: TA1538, Metabolic Activation: NONE, Method: STANDARD PLATE): inactive; negative
mutagenic call (Test System: AMES SALMONELLA TYPHIMURIUM, Strain/Indicator: TA1538, Metabolic Activation: RAT, LIVER, S-9, AROCLOR 1254, Method: STANDARD PLATE): inactive; negative
mutagenic call (Test System: AMES SALMONELLA TYPHIMURIUM, Strain/Indicator: TA1538, Metabolic Activation: RAT, LIVER, S-9, SODIUM PHENOBARBITAL, Method: STANDARD PLATE): inactive; negative

CCCCN(C[C@@H](CO)Cc1ccccc1)N=O
mutagenic call [6]: inactive; negative
mutagenic call [5]: active; positive
